US20250073169A1, “POLYMER NANOPARTICLES VIA CONDENSED DROPLET POLYMERIZATION” (CORNELL UNIVERSITY, priority 2021, published 2025)

Assay: Static contact angle of liquid monomer on coated substrate (goniometer)
Type: physicochemical
Method: Contact angle and aspect ratio analysis: Contact angle measurements were performed using a Ramé-Hart Model 500 contact angle goniometer. A pipette was used to dispense 5 μL of liquid HEMA, 4VP, and DVB onto the substrate for static contact angle measurements.

[1] = 5 μL liquid monomer on flattened PPFDA base layer, n=5

Row | Compound | contact angle [1] | contact angle (5 μL liquid monomer on PDVB thin film coated substrate, n=4)
1 | C=Cc1ccncc1 [4VP, 4-vinylpyridine] | 80.6±1.7 ° | 
2 | C=C(C)C(=O)OCCO [HEMA, 2-hydroxyethyl methacrylate] | 86.4±1.0 ° | 18.5±1.1 °
3 | divinylbenzene [DVB] | 86.5±1.6 ° | 
